Measurements published in patent publication US8871753B2, “Macrocyclic compounds and their use as kinase inhibitors” (Incyte Corporation, priority 2008, dated 2014).
Structures can show the parent of a compound that is named as a salt. Where two headings read alike, the source gives them in different places.

Assays:
Assay type in all cases: biochemical
[1] = target: T1, human JAK1 (a.a. 837-1142) (Homo sapiens, UniProt P23458); experiment: In vitro JAK kinase assay (HTRF, phosphorylation of a biotinylated peptide), JAK1; details: read-out: JAK1 IC50
T1 construct: human JAK1 (a.a. 837-1142); His tag (N); made in house; host or cells: insect cells (baculovirus)
Outline: (§1)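 Kinase reactions ran at room temperature for 1 h with ATP matched per isoform (JAK1 90 μM, JAK2 30 μM, JAK3 3 μM). After an EDTA stop, the phosphorylated biotin-peptide was read by HTRF using Eu-Py20 and SA-APC after 40 min binding.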

[2] = target: T2, human JAK3 (a.a. 781-1124) (Homo sapiens, UniProt P52333); experiment: In vitro JAK kinase assay (HTRF, phosphorylation of a biotinylated peptide), JAK3
T2 construct: JAK3 (a.a. 781-1124); His tag (N); made in house; host or cells: insect cells (baculovirus)
Outline: as §1

TYK2 = TYK2 (Homo sapiens, UniProt P29597); experiment: TYK2 kinase inhibition (Table A1)
[3] = target: T3, human JAK2 (a.a. 828-1132) (Homo sapiens, UniProt O60674); experiment: In vitro JAK kinase assay (HTRF, phosphorylation of a biotinylated peptide), JAK2
T3 construct: JAK2 (a.a. 828-1132); His tag (N); made in house; host or cells: insect cells (baculovirus)
Outline: as §1

[4] = target: T4, Recombinant Human Anaplastic Lymphoma Kinase (Homo sapiens, UniProt Q9UM73); experiment: ALK HTRF kinase assay; details: for IC50: Table B1, cells without percent sign
T4 construct: purchased Invitrogen, Carlsbad, Calif
Outline: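 Kinase activity of the recombinant human protein is measured on a biotinylated peptide, with a Eu-W1024 anti-phosphotyrosine antibody and streptavidin-allophycocyanin generating the homogeneous time-resolved fluorescence signal. Inhibition curves are fitted to yield IC50.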

[5] = method AA1 (90 μM ATP) or AA2 (1000 μM ATP), not stated per value
[6] = method AA1 (3 μM ATP) or AA2 (1000 μM ATP), not stated per value
[7] = method AA1 (30 μM ATP) or AA2 (1000 μM ATP), not stated per value
[8] = compound at 500 nM or 1 mM, 90 μM ATP
[9] = compound at a concentration of 500 nM or 1 mM (not specified), cells shown as percentage

T1 sequence (P23458 849-1154): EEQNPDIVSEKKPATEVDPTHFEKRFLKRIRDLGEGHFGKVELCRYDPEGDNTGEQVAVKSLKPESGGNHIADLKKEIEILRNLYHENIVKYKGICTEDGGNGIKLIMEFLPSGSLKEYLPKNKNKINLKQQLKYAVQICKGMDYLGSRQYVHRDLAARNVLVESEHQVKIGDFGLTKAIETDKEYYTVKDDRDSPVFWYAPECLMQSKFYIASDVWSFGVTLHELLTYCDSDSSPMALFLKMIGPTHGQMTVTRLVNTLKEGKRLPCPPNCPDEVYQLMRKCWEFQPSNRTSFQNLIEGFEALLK
Sequence of TYK2 (P29597 whole entry): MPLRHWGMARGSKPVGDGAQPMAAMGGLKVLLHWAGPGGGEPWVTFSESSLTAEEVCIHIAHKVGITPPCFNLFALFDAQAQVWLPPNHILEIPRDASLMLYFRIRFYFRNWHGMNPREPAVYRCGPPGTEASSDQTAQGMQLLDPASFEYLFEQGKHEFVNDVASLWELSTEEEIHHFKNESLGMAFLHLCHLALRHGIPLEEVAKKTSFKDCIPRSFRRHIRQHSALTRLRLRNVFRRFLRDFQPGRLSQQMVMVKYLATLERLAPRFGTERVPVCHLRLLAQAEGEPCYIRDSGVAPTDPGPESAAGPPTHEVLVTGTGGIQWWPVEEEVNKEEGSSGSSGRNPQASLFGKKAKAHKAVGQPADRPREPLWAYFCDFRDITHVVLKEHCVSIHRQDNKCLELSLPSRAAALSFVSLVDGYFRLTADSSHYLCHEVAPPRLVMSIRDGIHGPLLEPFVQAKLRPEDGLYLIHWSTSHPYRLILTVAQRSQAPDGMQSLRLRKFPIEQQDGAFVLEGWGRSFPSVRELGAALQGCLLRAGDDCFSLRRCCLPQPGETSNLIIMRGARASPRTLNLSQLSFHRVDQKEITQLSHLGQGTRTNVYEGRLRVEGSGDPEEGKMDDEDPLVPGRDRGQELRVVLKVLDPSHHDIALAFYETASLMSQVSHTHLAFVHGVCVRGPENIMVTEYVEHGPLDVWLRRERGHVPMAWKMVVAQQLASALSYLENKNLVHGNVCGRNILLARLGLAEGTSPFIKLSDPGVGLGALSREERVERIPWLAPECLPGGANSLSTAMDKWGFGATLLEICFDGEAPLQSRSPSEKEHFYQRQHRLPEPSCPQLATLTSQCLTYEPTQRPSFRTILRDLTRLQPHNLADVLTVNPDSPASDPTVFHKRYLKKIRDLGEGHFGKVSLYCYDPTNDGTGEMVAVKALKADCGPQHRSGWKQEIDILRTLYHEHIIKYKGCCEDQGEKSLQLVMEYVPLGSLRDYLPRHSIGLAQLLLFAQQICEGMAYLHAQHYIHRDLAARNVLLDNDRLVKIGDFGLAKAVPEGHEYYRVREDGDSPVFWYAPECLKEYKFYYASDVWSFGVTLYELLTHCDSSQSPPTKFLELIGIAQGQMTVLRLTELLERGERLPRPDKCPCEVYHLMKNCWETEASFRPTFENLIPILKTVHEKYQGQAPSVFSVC
T2 sequence (P52333 781-1124): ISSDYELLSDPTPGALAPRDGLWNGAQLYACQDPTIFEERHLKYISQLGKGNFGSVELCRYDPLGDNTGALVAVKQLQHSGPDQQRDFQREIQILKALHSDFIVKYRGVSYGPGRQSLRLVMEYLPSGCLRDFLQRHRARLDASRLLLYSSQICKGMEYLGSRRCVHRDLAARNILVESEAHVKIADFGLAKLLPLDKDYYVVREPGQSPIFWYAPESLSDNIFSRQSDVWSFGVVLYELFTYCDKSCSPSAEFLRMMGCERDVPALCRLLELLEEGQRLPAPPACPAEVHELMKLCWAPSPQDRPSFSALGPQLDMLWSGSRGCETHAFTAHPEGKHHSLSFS
T3 sequence (O60674 828-1132): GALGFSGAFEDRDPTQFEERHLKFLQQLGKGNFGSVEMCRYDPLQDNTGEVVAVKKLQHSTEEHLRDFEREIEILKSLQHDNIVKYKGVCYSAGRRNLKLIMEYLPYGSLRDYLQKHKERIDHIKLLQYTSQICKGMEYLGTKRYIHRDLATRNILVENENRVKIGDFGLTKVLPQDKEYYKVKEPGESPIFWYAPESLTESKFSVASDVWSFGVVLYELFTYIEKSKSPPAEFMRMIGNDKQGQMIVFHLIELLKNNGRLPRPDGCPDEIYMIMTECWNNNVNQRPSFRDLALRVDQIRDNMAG
T4 sequence (Q9UM73 19-1620): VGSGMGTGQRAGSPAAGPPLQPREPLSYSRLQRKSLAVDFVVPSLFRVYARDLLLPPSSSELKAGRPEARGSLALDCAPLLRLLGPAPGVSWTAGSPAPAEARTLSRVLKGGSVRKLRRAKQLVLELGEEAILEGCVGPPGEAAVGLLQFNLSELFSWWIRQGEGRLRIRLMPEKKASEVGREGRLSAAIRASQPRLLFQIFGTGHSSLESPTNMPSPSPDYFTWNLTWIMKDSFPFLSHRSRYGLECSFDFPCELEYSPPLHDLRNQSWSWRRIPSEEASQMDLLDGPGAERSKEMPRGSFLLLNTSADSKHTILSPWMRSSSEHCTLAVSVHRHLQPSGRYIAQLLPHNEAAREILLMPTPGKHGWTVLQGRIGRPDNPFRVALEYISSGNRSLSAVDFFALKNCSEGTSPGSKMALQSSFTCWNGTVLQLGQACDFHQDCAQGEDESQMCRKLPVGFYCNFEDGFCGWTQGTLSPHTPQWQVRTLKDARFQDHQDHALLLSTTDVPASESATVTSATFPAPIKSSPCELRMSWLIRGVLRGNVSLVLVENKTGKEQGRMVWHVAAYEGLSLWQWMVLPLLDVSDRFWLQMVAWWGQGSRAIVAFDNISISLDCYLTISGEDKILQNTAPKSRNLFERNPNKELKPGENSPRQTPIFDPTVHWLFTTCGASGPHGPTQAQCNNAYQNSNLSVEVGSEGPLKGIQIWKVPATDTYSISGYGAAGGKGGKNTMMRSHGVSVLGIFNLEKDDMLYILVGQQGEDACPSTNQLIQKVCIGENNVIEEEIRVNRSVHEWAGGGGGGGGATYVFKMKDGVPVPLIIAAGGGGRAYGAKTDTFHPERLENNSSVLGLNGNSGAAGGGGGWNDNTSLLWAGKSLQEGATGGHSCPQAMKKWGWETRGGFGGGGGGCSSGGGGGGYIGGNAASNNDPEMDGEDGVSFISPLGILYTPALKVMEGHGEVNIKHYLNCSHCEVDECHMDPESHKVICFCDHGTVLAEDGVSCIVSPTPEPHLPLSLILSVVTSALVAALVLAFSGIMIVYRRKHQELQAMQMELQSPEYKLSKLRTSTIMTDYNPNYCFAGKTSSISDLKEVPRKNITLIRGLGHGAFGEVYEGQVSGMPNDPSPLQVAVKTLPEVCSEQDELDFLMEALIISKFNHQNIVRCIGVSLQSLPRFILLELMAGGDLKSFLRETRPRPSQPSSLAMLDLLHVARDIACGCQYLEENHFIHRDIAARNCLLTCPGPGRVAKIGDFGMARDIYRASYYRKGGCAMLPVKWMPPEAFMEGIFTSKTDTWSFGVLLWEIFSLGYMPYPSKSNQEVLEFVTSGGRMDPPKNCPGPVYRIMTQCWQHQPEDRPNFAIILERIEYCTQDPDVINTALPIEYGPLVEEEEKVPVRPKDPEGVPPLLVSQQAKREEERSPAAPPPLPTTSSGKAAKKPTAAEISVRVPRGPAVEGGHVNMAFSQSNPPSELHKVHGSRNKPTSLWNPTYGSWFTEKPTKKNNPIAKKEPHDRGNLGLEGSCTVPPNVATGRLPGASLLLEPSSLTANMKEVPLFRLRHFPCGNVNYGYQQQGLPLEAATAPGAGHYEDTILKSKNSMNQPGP

Row | SMILES | IC50 [1, 5] | IC50 [2, 6] | IC50 (TYK2) | IC50 [3, 7] | ALK % of inhibition at a concentration of 500 nM or 1 mM [4, 8] | IC50 ([1]; Table B1) | IC50 ([2]; Table B1) | IC50 (TYK2; Table B1) | IC50 ([3]; Table B1) | ALK % of inhibition at a concentration of 500 nM or 1 mM [4, 9] | IC50 [4] | ALK % of inhibition at a concentration of 500 nM or 1 mM ([4]; percentage inhibition of the example compound at a concentration of 500 nM or 1 mM (not specified which))
1 | C[N+]1(C)CCC(CC(=O)Nc2ccc3cc2CCc2cccc(c2)Nc2ncc(Cl)c(n2)N3)CC1 [Example A111, 4-(2-{[6-Chloro-2,4,8,22-tetraazatetracyclo[14.3.1.1(3,7).1(9,13)]docosa-1(20),3(22),4,6,9(21),10,12,16,18-nonaen-12-yl]amino}-2-oxoethyl)-1,1-dimethylpiperidinium bis(trifluoroacetate)] | 45 nM | 298 nM | 148 nM | 103 nM | 23% | – | – | – | – | – | – | –
2 | O=C(O)c1cccc(S(=O)(=O)Nc2ccc3cc2CCc2cccc(c2)Nc2ncc(Cl)c(n2)N3)c1 [Example B159, 3-({[6-Chloro-2,4,8,22-tetraazatetracyclo[14.3.1.1(3,7).1(9,13)]docosa-1(20),3(22),4,6,9(21),10,12,16,18-nonaen-12-yl]amino}sulfonyl)benzoic acid trifluoroacetate] | – | – | – | – | – | 1.3 nM | 3.1 nM | 1.6 nM | 0.46 nM | 82% | – | –
3 | Clc1cnc2nc1Nc1ccc(Nc3nccc(-c4ccccc4)n3)c(c1)CCc1cccc(c1)N2 [Example B279, 6-Chloro-N-(4-phenylpyrimidin-2-yl)-2,4,8,22-tetraazatetracyclo[14.3.1.1(3,7).1(9,13)]docosa-1(20),3(22),4,6,9(21),10,12,16,18-nonaen-12-amine tris(trifluoroacetate)] | – | – | – | – | – | 86 nM | > 10000 nM | 549 nM | 158 nM | 0.76% | – | –
4 | Cc1cccc(N2CCC(CC(=O)Nc3ccc4cc3CCc3cncc(c3)Nc3ncc(Cl)c(n3)N4)CC2)c1C#N [Example A236, N-[6-Chloro-2,4,8,18,22-pentaazatetracyclo[14.3.1.1(3,7).1(9,13)]docosa-1(20),3(22),4,6,9(21),10,12,16,18-nonaen-12-yl]-2-[1-(2-cyano-3-methylphenyl)piperidin-4-yl]acetamide tris(trifluoroacetate)] | 1.7 nM | > 400 nM | > 400 nM | 150 nM | 16% | – | – | – | – | – | – | –
5 | Fc1ccc(CN2CCN(Cc3cc4cc(c3)Nc3nc(ncc3Cl)Nc3cccc(c3)CC4)CC2)cc1 [Example B192, 6-Chloro-11-{[4-(4-fluorobenzyl)piperazin-1-yl]methyl}-2,4,8,22-tetraazatetracyclo[14.3.1.1(3,7).1(9,13)]docosa-1(20),3(22),4,6,9(21),10,12,16,18-nonaene tris(trifluoroacetate)] | – | – | – | – | – | 21 nM | 308 nM | 341 nM | 23 nM | – | > 1000 nM | –
6 | N#Cc1ccc(N2CCN(C(=O)Nc3ccc4cc3CCc3cncc(c3)Nc3ncc(Cl)c(n3)N4)CC2)cc1 [Example B303, N-[6-Chloro-2,4,8,18,22-pentaazatetracyclo[14.3.1.1(3,7).1(9,13)]docosa-1(20),3(22),4,6,9(21),10,12,16,18-nonaen-12-yl]-4-(4-cyanophenyl)piperazine-1-carboxamide tris(trifluoroacetate)] | – | – | – | – | – | 19 nM | > 400 nM | 36 nM | 161 nM | – | – | 81%
7 | O=C(Nc1ccc2cc1CCc1cccc(c1)Nc1ncc(Cl)c(n1)N2)c1ccno1 [Example B53, N-[6-Chloro-2,4,8,22-tetraazatetracyclo[14.3.1.1(3,7).1(9,13)]docosa-1(20), 3(22),4,6,9(21),10,12,16,18-nonaen-12-yl]isoxazole-5-carboxamide trifluoroacetate] | – | – | – | – | – | 2.8 nM | 17 nM | 8 nM | 2.3 nM | – | 720 nM | –
